In patent publication US11000555B2, “Method for preparing a limax compound and therapeutic use thereof” (GUANGXI JIUFU BIOTECHNOLOGY CO., LTD, priority 2017, dated 2021):
Marks after values point to notes of the source that are not given here.

How the values were obtained:
[1] = tested on: mice; test: Amphetamine-induced hyperexcitability test of mice; format: in vivo, Kunming mice
Procedure: Forty Kunming mice, half males and half females, were fasted for 12 h but free to drink water. The mice were randomly divided into four groups: a blank control group, a low does Compound group (0.4 g/kg, ig), a high dose Compound group (0.8 g/kg, ig) and a positive drug control group (Estazolam, 2 mg/kg). The mice were placed into the YLS-1A multifunctional recorder for spontaneous activities of small animals. After 5 minutes of adaptation, the number of the mice's spontaneous activities before administration were recorded, and the recording lasted for 10 minutes. The room was kept quiet during recording, at a room temperature of 20-24° C. After this, each group of mice was administered according to the above doses, and the blank control group was given the same volume of normal saline (ig). Thirty minutes after administration, each mouse was given an intraperitoneal injection of amphetamine (8 mg/kg). Fifteen minutes later, the mice were placed in the recorder to observe and record the number of activities within 10 min.

[2] = tested on: mice; test: Sleeping duration induced by a threshold dose of pentobarbital sodium; format: in vivo, Kunming mice; conditions: for Sleeping duration: pentobarbital sodium 50 mg/kg ip
Procedure: Forty Kunming mice, half males and half females, were fasted for 12 h but free to drink water. The mice were randomly divided into four groups: a blank control group, a low does Compound group (0.4 g/kg, ig), a high dose Compound group (0.8 g/kg, ig) and a positive drug control group (Estazolam, 2 mg/kg). each group of mice was administered according to the above doses (ig), and the blank control group was given the same volume of normal saline. Forty-five minutes later, each mouse was given (ip) 50 mg/kg pentobarbital sodium, and then the sleeping duration of each group of mice was recorded (taking the disappear of righting reflex after administration as the indicator of falling asleep, and the recovery of righting reflex as the end time of the sleep).

## CC1(C)O[C@H]2CC[C@@]3(C)[C@@H]([C@@H](O)[C@H](O)[C@@H]3[C@@](C)(O)CC[C@@H]3OC(C)(C)[C@H]4CC[C@]3(C)O4)[C@]2(C)CC[C@H]1O [the compound, limaxol A]
[1]; 0.4, 0.8 g/kg, ig
  Effect on excitability induced by amphetamine: inhibit the increase of excitability induced by morphine and amphetamine
[1]; After administration, high dose 0.8 g/kg ig, amphetamine 8 mg/kg
  Number of activities, amphetamine-induced excitability: 132.6 ± 26.26**^Δ▴▴ Times per min
[1]; After administration, low dose 0.4 g/kg ig, amphetamine 8 mg/kg
  Number of activities, amphetamine-induced excitability: 130.6 ± 32.11**^Δ▴ Times per min
[1]; Before administration, high dose group
  Number of activities, amphetamine-induced excitability: 197.4 ± 39.30 Times per min
[1]; Before administration, low dose group
  Number of activities, amphetamine-induced excitability: 192.0 ± 45.06 Times per min
[2]; 0.4, 0.8 g/kg, ig
  Effect on sleeping duration induced by pentobarbital sodium: significantly prolong the sleeping duration
[2]; high dose 0.8 g/kg ig
  Sleeping duration: 32.8 ± 9.56*^ΔΔ min
[2]; low dose 0.4 g/kg ig
  Sleeping duration: 39.5 ± 11.46**^Δ min
